Assay results reported in US11331364B2, “Use for JNK inhibitor molecules for treatment of various diseases” (Xigen Inflammation Ltd., priority 2014, dated 2022).
“And” between values parts separate entries of the source, which are not always exact repeats. Equal values may be shown once. Square brackets hold non-standard residues; d marks the D form. Peptide text beside a SMILES is read from it.

Legend:
[1] = system: rat model of kidney bilateral ischemia reperfusion; test: Kidney bilateral ischemia reperfusion, tubular histological scores, Sprague-Dawley rats; format: in vivo
Method: Male Sprague-Dawley rats weighing 200-250 g at delivery were used (Charles River Laboratories, L'Arbresle, France). Animals were delivered to the laboratory at least 5 days before the experiments during which time they were acclimatized to laboratory conditions. This study included 3 groups of 11-12 rats each, as follow:
The protocol of warm renal ischemia was similar to that previously described (Pechman K R et al., 2009). Briefly, under general anesthesia (pentobarbital; 60 mg/kg, i.p. and atropine; 1 mg/kg, i.p.), both renal pedicles were isolated and clamped for 40 minutes using atraumatic clamps. After this time, clamps were released to start reperfusion. Animals were maintained at 37° C. using a thermo-regulated system (TCAT-2LV Controller, Physitemp Instruments, Clifton, N.J., USA) during the surgery. All the animals were sacrificed 24 hours after the release of both vascular clamps (reperfusion). Sham-operated animals underwent the same surgical procedure without clamping of the kidney vessels.
XG-104 or vehicle (0.9% NaCl) were administered into the tail vein (i.v.) at the dose of 2 mg/kg twenty minutes after the release of the second vascular clamp. Intravenous administrations into the tail vein were performed using the volume of 1 mL/kg.
After sacrifice, kidneys were removed, cleaned from all connective tissue and capsule and weighted on an electronic balance (VWR, France). One kidney was transferred in formalin solution 10% (Sigma Aldrich, France) for at least 24 h and then transferred in ethanol 70% for further histological analysis performed by Histalim (Montpellier, France). Right and left kidneys were randomly chosen. Kidney samples were fixed in 10% formalin during 72 hours, transferred into 70% ethanol, then embedded in paraffin blocks by Histalim (Montpellier, France). One longitudinal section (3 to 5 µm) was made per block. Kidney sections of paraffin embedded tissue were stained by hematoxylin and eosin (H&E). All the slides were digitalized at ×20 magnitude using Nanozoomer 2.0 HT from Hamamatsu (Hamamatsu, Japan). Each tissue section was examined histologically in a blinded manner to determine if tubular changes were present. The severity of each finding was then graded as follows:
Tubular damage score consisted of either degeneration/necrosis, tubular epithelial vacuolation, regeneration (basophil tubules), and tubular cast: […]

human whole blood = test: LPS-induced IL-6 release in human whole blood; format: cell-based; details: 1, 3, 10 μM 1 h before LPS (0.02 ng/mL), 4 hours
Method: FIG. 18 JNK inhibition and IL-6 release in human whole blood. The JNK inhibitor with SEQ ID NO: 172 was added at three different concentrations, namely 1, 3 and 10 μM 1 h before whole blood stimulation with LPS (0.02 ng/mL) for 4 hours.
Whole blood is collected from anesthetized rat or human healthy volunteers using a venipuncture connected to a pre-labeled vacuum tube containing sodium citrate. Tubes are gently mixed by inversion 7-8 times; and are then kept at RT until stimulation. JNK inhibitor of SEQ ID NO: 172 is prepared 6 times concentrated in PBS, and 30 μl/well of mix is added into 96-well plate. Whole blood is diluted by 1:2 in PBS and 120 μl of diluted blood is added in each well where either PBS alone or JNK inhibitor of SEQ ID NO: 172 has been previously added. Whole blood is incubated at 37° C.; 85 rpm (Stuart Orbital incubator SI500) for 60 min. Activators (LPS) are the prepared, 30 μl/well of LPS, 6 times concentrated. After 60 min incubation, LPS is added to the blood, blood is mixed by pipetting up and down, and then kept for 4 h under agitation (85 rpm), at 37° C. […] Cytokine (IL-6, IL-2, IFNγ and TNFα) were then measured using standard Elisa kits (e.g. from R&D Systems: DuoSet Elisas; or from BD Biosciences: BD Opteia Set Elisa). Results are expressed as pg/ml of supernatant of the measured cytokine.

[2] = 2 mg/kg i.v. after reperfusion, 24 hours
[3] = 2 mg/kg i.v. after reperfusion, 24 hours, listed as XG-104

CC(C)C[C@H](NC(=O)[C@H](CC(N)=O)NC(=O)[C@H](CC(C)C)NC(=O)[C@@H](NC(=O)[C@@H](C)NC(=O)[C@@H]1CCCN1C(=O)[C@H](CCCNC(=N)N)NC(=O)[C@@H](CCCCN)NC(=O)[C@@H]1CCCN1C(=O)[C@H](CCCNC(=N)N)NC(=O)[C@@H](CCCNC(=N)N)NC(=O)[C@H](CCCNC(=N)N)NC(=O)[C@H](CCCNC(=N)N)NC(=O)[C@H](CCC(N)=O)NC(=O)[C@@H](CCCNC(=N)N)NC(=O)[C@H](CCCNC(=N)N)NC(=O)[C@H](CCCCN)NC(=O)[C@H](CCCCN)NC(=O)[C@H](N)CCCNC(=N)N)[C@@H](C)O)C(=O)N[C@H](Cc1ccccc1)C(N)=O [SEQ ID NO: 172, rKKRrQRRrRPkRPaTLNLf] (H-[dR]KKR[dR]QRR[dR]RP[dK]RP[dA]TLNL[dF]-NH2; N-terminus assumed)
animals with degeneration/necrosis score of 1 [1, 2]: 1/11 | total tubular score (mean) [1, 2]: 6.00±1.26 | animals with degeneration/necrosis score of 4 [1, 3]: 1/12 and 1/11 | mean basophilic tubule score [1, 3]: 1.33±0.65 and 1.73±0.47 | mean tubular epithelial degeneration/necrosis score [1, 3]: 2.67±0.65 and 2.18±0.75 | tubular damages ([1]; 2 mg/kg i.v., vs IR/Vehicle): significant beneficial effects on tubular damages | LPS-induced IL-6 release (human whole blood): did reduce the LPS-induced IL-6 release in a dose-dependent manner
